Measured values: PubChem BioAssay (NCI)
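Test compounds were applied to cells in 96-well plates for 48 hours at 5 doses. TGI denotes the concentration required for complete inhibition of growth.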

How the values were obtained:
Assay in all cases: inhibition of tumour cell growth, NCI panel, 48 h
ACHN renal = test system: ACHN renal
HCT-116 colon = test system: HCT-116 colon
HOP-62 NSCLC = test system: HOP-62 NSCLC
MCF7 breast = test system: MCF7 breast
NCI-H460 lung = test system: NCI-H460 lung
T-47D breast = test system: T-47D breast

Row | Structure (SMILES) | TGI (ACHN renal) [µM] | TGI (HCT-116 colon) [µM] | TGI (HOP-62 NSCLC) [µM] | TGI (MCF7 breast) [µM] | TGI (NCI-H460 lung) [µM] | TGI (T-47D breast) [µM]
1 | COC(=O)c1sc2ncc3c(c2c1N)CCCCCC3 | > 100 | > 100 | > 100 | > 100 | > 100 | > 100
2 | CC(C)c1cc(CN(C)C)c(O)c(C(C)(C)C)c1 | 32.3 | > 100 | 62.9 | 30.1 | 32.3 | 58.1
3 | COc1ccc2nc3ccc(OC)cc3c(SCc3ccc([N+](=O)[O-])cc3)c2c1 | > 100 | > 100 | > 100 |  | > 100 | > 100
4 | CN(CCCCN1CCCC1)CCCN(C)C(=O)Cc1ccc(Cl)c(Cl)c1 | > 100 | 28.3 | 34.4 | 34.4 | 39.8 | 44.2
5 | COc1c(C)c2c(c(=O)c3c(C)cccc3n2C)c2c1c(=O)c1c(C)cccc1n2C | > 10 | > 10 | > 10 | > 10 | > 10 | > 10
6 | CN(C)c1ccc(/C=c2/c3ccccc3n3nc4ccccc4c23)cc1 | > 100 | > 100 | > 100 | > 100 | > 100 | 55.4
7 | Cc1nc(Nc2ccccc2Cl)sc1C(=O)CC(=O)C(=O)Nc1c(Cl)cccc1Cl | > 100 | 52 | > 100 | > 100 | > 100 | 71.6
8 | c1ccc(N=C(Nc2ccccc2)N2CCCCC2)cc1 | > 100 | > 100 | > 100 | > 100 | > 100 | > 100
9 | Cc1ccc(C)n1-n1c(Cc2ccccc2)n[nH]c1=O | > 100 | > 100 | > 100 | > 100 | > 100 | > 100
10 | [O-][n+]1onc2c1CCC(=N\O)/C2=N/Nc1ccccc1 | > 100 | > 100 | > 100 | > 100 | > 100 | 
11 | Oc1cc(Br)cc2cccnc12 | > 69 | 16.8 | 81.9 |  | 17 | 25.4
12 | O=C(CC(C(=O)c1cccs1)c1ccsc1)c1cccs1 (configuration not stated) | > 100 | > 100 | > 100 | > 100 | > 100 | > 100
13 | O=C1C(N2CCNCC2)=C(Cl)C(=O)c2ncccc21 | > 10 | 4.36 | > 10 | > 10 | > 10 | > 10
14 | COc1cc(C)c(/C=C/C(=O)N2C(=O)OC[C@@H]2c2ccccc2)c(C)c1 | > 100 | > 100 | > 100 |  |  | 74.1
15 | CCOC(=O)C(/C=N\C(=S)Nc1ccc(Cl)c(Cl)c1)=C(/O)c1ccccc1 | > 100 | > 100 | > 100 | > 100 | > 100 | > 100
16 | N=C(N)N1CCC(N2CCOCC2)CC1 | > 100 | > 100 | > 100 | > 100 | > 100 | > 100
17 | CC(C)(C)c1cc(-c2cc(C(C)(C)C)n(-c3ccccc3)n2)nn1-c1ccccc1 | > 100 | > 100 | > 100 | > 100 | > 100 | > 100
18 | C=CC(c1ccccc1)[C@@]1(OC(C)=O)C(=O)C(=O)OC1C1COC(C)(C)O1 (some centres not stated) | 18.6 | 24.7 | 34.2 | 22.8 | 32.3 | 41.1
19 | CC(C)CC1C(=O)NCCC(NC(=O)C(N)Cc2ccc(O)cc2)C(=O)NC(Cc2ccccc2)C(=O)NC(Cc2ccccc2)NC1=O (configuration not stated) | > 100 | > 100 | > 100 | > 100 | > 100 | > 100
20 | Nc1nc(N)c2c(n1)NC(=O)c1c(c3ccccc3n1Cc1ccc(Cl)cc1)C2 |  | 66.9 | 57.5 | 88.5 | 36.8 | 43.9
21 | Cc1nc2ccc(S(=O)(=O)Nc3ccccc3)cc2c(=O)n1NC(=O)CNc1ccccc1 | > 100 | > 100 | > 100 | > 100 | > 100 | 
22 | COc1ccc(C(=O)Cn2c(C(=O)/C=C/c3ccco3)nc3ccccc32)cc1 | > 100 | > 100 | > 100 | > 100 | > 100 | > 100
23 | CNC(=O)c1n[nH]nc1Sc1c([N+](=O)[O-])ncn1C | > 100 | > 100 | > 100 | > 100 | > 100 | > 100

Row | Structure (SMILES) | TGI (ACHN renal) [µM] | TGI (HCT-116 colon) [µM] | TGI (HOP-62 NSCLC) [µM] | TGI (MCF7 breast) [µM] | TGI (NCI-H460 lung) [µM] | TGI (T-47D breast) [µM]
24 | COc1cc(CNc2ccc3nc4n(c(=O)c3c2)CCCCC4)cc(OC)c1OC | > 100 | > 100 | > 100 | > 100 | > 100 | > 100
25 | c1ccc(Cc2nc(Cc3n[nH]c(Cc4ccccc4)n3)n[nH]2)cc1 | > 100 | > 100 | > 100 | > 100 |  | 
26 | O/C(=C\c1nc2ccccc2nc1/C=C(\O)c1ccc(Cl)cc1)c1ccccc1 | > 100 | > 100 | > 100 | > 100 | > 100 | > 100
27 | Cc1nc2sc3ccccc3n2c(=O)c1N=Nc1ccc(Br)cc1 | > 100 | > 100 | > 100 | > 100 | > 100 | > 100
28 | CS/C1=C(\c2ccc(C)cc2)N(c2ccccc2)C(=O)C(=O)N(c2ccccc2)/C(c2ccc(C)cc2)=C(/SC)SS1 | > 100 | > 100 | > 100 | > 100 | > 100 | > 100
29 | O=C(CC(C(=O)c1ccco1)c1ccsc1)c1ccco1 (configuration not stated) | > 100 | > 100 | > 100 | > 100 | > 100 | > 100
30 | O=C(O)CN1CCN2CCOCCOCCN(CC1)CCN(CC(=O)O)CC2 | > 100 | > 100 | > 100 | > 100 | > 100 | > 100
31 | COc1cc(OC)c2c(=O)cc(-c3ccccc3F)[nH]c2c1 | > 100 | > 100 | > 100 | > 100 | > 100 | > 100
32 | Cc1ccc2c(=O)c3cccc(CC(=O)O)c3[nH]c2c1C | > 100 | > 100 | > 100 | > 100 | > 100 | 
33 | NNC(=O)c1ccccc1NC(=O)/C(=C/c1ccccc1O)NC(=O)c1ccccc1 | 32.7 | > 100 |  | 39.2 | > 100 | > 100
34 | O=C(CCc1ccccc1)ON1C(=S)NC(c2ccccc2)(c2ccccc2)C1=S | > 100 | > 100 | > 100 | > 100 | > 100 | > 100
35 | O=C1c2ccccc2C(=O)c2c(Nc3ccc4c5c(cccc35)C(=O)c3ccccc3-4)cccc21 | > 100 | > 100 | > 100 |  | > 100 | > 100
36 | Cc1ccc(N=Nc2ccc(O)c(CN(C)C)c2)cc1C | 60.1 | > 100 | 52.5 | > 100 | 42.6 | 41.9
37 | O=C1c2ccccc2C(=O)[C@@]23O[C@@]12C1(Oc2cccc4cccc(c24)O1)[C@@H]1O[C@@H]1[C@@H]3O | 27.7 | 15.1 | 25.7 | 14.6 | 23.6 | 29.8
38 | Oc1cc(-c2ccccc2)cn2c1nc1ccccc12 | > 100 | > 100 | > 52.6 | > 100 | > 100 | > 100
39 | COC(=O)C1(c2cc3ccccc3n2S(=O)(=O)c2ccccc2)CC2C=CC1NC2 (configuration not stated) | 3.82 | 6.16 | 3.92 | 3.06 | > 29.6 | 13.5
40 | O=C(CNc1cccc([N+](=O)[O-])c1)Nn1c(-c2ccccc2)nc2ccccc2c1=O | 3.34 | 2.09 | 4.25 | 1.71 |  | 4.54
41 | CC(C)(C)c1cc(C2NCCO2)cc(C(C)(C)C)c1O (configuration not stated) | > 100 | > 100 | > 100 | > 100 | > 100 | 27.6
42 | COc1cc(NC(C)=O)ccc1C(=O)N/N=C/c1ccc(Cl)cc1Cl | > 100 | > 100 | > 100 | > 100 |  | 70.8
43 | COc1cc(/C=C2\C[C@H]3[C@@H]4CC=C5C=C(N6CCCC6)CC[C@]5(C)[C@H]4CC[C@]3(C)C2=O)cc(OC)c1OC | 5.46 | 3.93 | 7.17 | 11.3 |  | 11.1
44 | O=C(NC(CS)C(=O)O)c1cccc2c(=O)c3ccccc3[nH]c12 (configuration not stated) | > 100 | > 100 | > 100 | > 100 |  | 
45 | Cc1c(C)c2c(c(N)c1C#N)C(=O)N(Nc1ccccc1)C2=O | > 100 | > 100 |  | > 100 | > 100 | > 100
46 | N#Cc1c(O)c(N=Nc2ccccc2F)c(=O)n2c1[nH]c1ccccc12 | > 100 | > 100 | > 100 | > 100 | > 100 | 
